pKd: −log10 of the molar value. Starred links: 1 amine or outer side, 2 acyl side, 3 side chain; linkers in the order of their positions; H or OH if unused. Positions of bridges follow the written chain, without caps; N, C: chain ends. Non-standard residues stand in square brackets, D forms with d. Residues, ends and D or L forms follow the SMILES beside them. X1 = CCCCC[C@H](CC(=O)[*:1])O[*:2]; GABA = NCCCC(=O)O
Assays:
[1] = Isothermal titration calorimetry, DOPC liposomes containing lipid II; format: binding
Experimental: (§1) For MK and UQ binding, a 1:1 mixture of 1,2-dioleoyl-sn-glycero-3-phosphocholine (DOPC) and 1,2-dioleoyl-sn-glycero-3-phospho-rac-(1-glycerol) (DOPG) containing either 1.25 mol % MK4 or UQ10 was dissolved in chloroform. A lipid film was generated by drying this material under a stream of nitrogen followed by 2 h of vacuum drying. The resulting film was hydrated using 10 mM HEPES (pH 7.5) with 100 mM NaCl to give a final total lipid concentration of 5 mM. Using an Avanti Mini Extruder, this suspension was passed through a 100 nm polycarbonate filter 10 times. For ITC the sample cell was filled with 400 μL of 25 μM MBA prepared in 10 mM HEPES buffer. The syringe (150 μL) was loaded with a 5 mM lipid suspension with 1.25 mol % MK4 or UQ10. For lipid II binding, 10 mM DOPC containing 1 mol % lipid II was dissolved in chloroform. The resulting film was hydrated using 50 mM Tris (pH 7.5) with 100 mM NaCl and passed through a 100 nm polycarbonate filter 10 times. For ITC the sample cell was filled with 400 μL of 25 μM an MBA prepared in 50 mM Tris buffer. The syringe (150 μL) was loaded with a 10 mM DOPC suspension with 1 mol % lipid II. Data were collected by using an Auto-iTC200 (Malvern Panalytical) and processed by Affinimeter software using the “one binding site” model.

[2] = Isothermal titration calorimetry, DOPC:DOPG liposomes containing MK; format: binding
Experimental: as §1

[3] = system: methicillin-resistant S. aureus COL; experiment: Mouse peritonitis-sepsis model; conditions: single subcutaneous dose 1 h after infection
Experimental: Female outbred Swiss Webster mice were used in all experiments. S. aureus COL was grown in Mueller-Hinton Broth at 37° C. overnight and diluted with 7% type II porcine stomach mucin supplemented with 0.2 mM FeNH4-citrate. Cultures were diluted to provide a challenge inoculum of ˜5×10^8 CFU in 0.2 mL. 0.2 mL of the challenge inoculum was administered via intraperitoneal injection.

[4] = system: Mycobacterium tuberculosis
[5] = system: Gram-positive bacteria (Bacillus subtilis, Staphylococcus aureus and Staphylococcus epidermidis); experiment: Antibacterial activity against Gram-positive bacteria (broth micro-dilution); format: cell-based
Experimental: (§2) All antimicrobial assays were run in 96-well microtiter plates using a broth micro-dilution method. Diluted overnight cultures were used in all assays. For yeast strains, overnight cultures were diluted 2000-fold in YPD broth. For Enterococcus faecium and Staphylococcus aureus, overnight cultures were diluted 1000- and 10,000-fold in LB broth, respectively. For Streptococcus strains, overnight cultures were diluted 5,000-fold in Brain Heart Infusion (BHI) broth. For other bacteria, overnight cultures were diluted 5,000-fold in LB broth. 100 μL of each diluted culture was mixed with 100 μL of LB broth containing a syn-BNP at 2-fold serial dilutions across a 96-well microtiter plate row. The final concentration of each compound ranged from 64 to 0.25 μg/mL. Plates were incubated at 37° C. (bacteria) or 30° C. (yeast) for 16 h. The lowest concentration that inhibited visible microbial growth was recorded as the minimum inhibition concentration (MIC). All MIC assays were done in duplicate (n=2).

[6] = system: Mtb mc2 6206/mLux in J774A.1 mouse macrophages; format: cell-based, Mycobacterium tuberculosis
S. aureus tn:hemB = experiment: MIC against S. aureus hemB transposon insertion mutant; format: cell-based, Staphylococcus aureus
Experimental: All antimicrobial assays were run in 96-well microtiter plates using a broth micro-dilution method. Diluted overnight cultures were used in all assays. […] For Enterococcus faecium and Staphylococcus aureus, overnight cultures were diluted 1000- and 10,000-fold in LB broth, respectively. […] For other bacteria, overnight cultures were diluted 5,000-fold in LB broth. 100 μL of each diluted culture was mixed with 100 μL of LB broth containing a syn-BNP at 2-fold serial dilutions across a 96-well microtiter plate row. The final concentration of each compound ranged from 64 to 0.25 μg/mL. Plates were incubated at 37° C. (bacteria) or 30° C. (yeast) for 16 h. The lowest concentration that inhibited visible microbial growth was recorded as the minimum inhibition concentration (MIC). All MIC assays were done in duplicate (n=2).

[7] = system: Enterococcus or Streptococcus strains; experiment: MIC against all eight Enterococcus or Streptococcus strains; format: cell-based; conditions: MK-producing and MK-deficient
Experimental: as §2

Mycobacterium smegmatis = conditions: reported in literature; cited from earlier work

## CCCCC[C@@H]1CC(=O)N[C@@H](C(C)C)C(=O)N[C@H](CCCNC(=N)N)C(=O)N[C@@H](C(C)C)C(=O)NCC(=O)N2CCC[C@H]2C(=O)N[C@@H](CC(C)C)C(=O)N[C@H](CCCNC(=N)N)C(=O)N[C@@H](CCC(=O)O)C(=O)N[C@H](Cc2ccc(O)cc2)C(=O)N[C@H](C)C(=O)NCCCC(=O)O1 [MBA3 D-Trp-10 to D-Ala] (V[dR]VGPL[dR]E[dY][dA][GABA]; linker N-C via X1)
[1]
  lipid II binding: no lipid II binding or similarly low lipid II binding affinities
[2]
  ability to interact with MK: completely abrogated

## CCCCC[C@@H]1CC(=O)N[C@@H](C(C)C)C(=O)N[C@H](CCCNC(=N)N)C(=O)N[C@@H](C(C)C)C(=O)N[C@@H](C)C(=O)N2CCC[C@H]2C(=O)N[C@@H](CC(C)C)C(=O)N[C@H](CCCNC(=N)N)C(=O)N[C@@H](CCC(=O)O)C(=O)N[C@H](Cc2ccc(O)cc2)C(=O)N[C@H](Cc2c[nH]c3ccccc23)C(=O)NCCCC(=O)O1 [MBA3 Gly-4 to L-Ala] (V[dR]VAPL[dR]E[dY][dW][GABA]; linker N-C via X1)
[2]
  ability to interact with MK: completely abrogated

## CCCCC[C@@H]1CC(=O)N[C@@H](C(C)C)C(=O)N[C@H](CCCNC(=N)N)C(=O)N[C@@H](C(C)C)C(=O)NCC(=O)N2CCC[C@H]2C(=O)N[C@@H](CC(C)C)C(=O)N[C@H](CCCNC(=N)N)C(=O)N[C@@H](CCC(=O)O)C(=O)N[C@H](Cc2ccc(O)cc2)C(=O)N[C@H](Cc2c[nH]c3ccccc23)C(=O)NCCCC(=O)O1 [MBA3, metameb] (V[dR]VGPL[dR]E[dY][dW][GABA]; linker N-C via X1)
[3]; 5, 10 and 30 mg/kg
  mortality of infected mice compared to vehicle: dramatically decreased
[3]
  minimal dose required for 100% survival: 10 mg/kg
[1]
  lipid II binding: no lipid II binding or similarly low lipid II binding affinities
[4]
  activity against Mtb: active
[4]; lowest MIC against MDR Mtb
  MIC: ≥ 0.078 µg/mL
[5]
  antibacterial activity against Gram-positive bacteria: good Gram-positive antibiosis
[6]
  relative potency in macrophage assay: most potent

## CCCCC[C@@H]1CC(=O)N[C@@H](C(C)C)C(=O)N[C@H](CCC(=O)O)C(=O)N[C@@H](CCCNC(=N)N)C(=O)NCC(=O)N2CCC[C@H]2C(=O)N[C@@H](CC(C)C)C(=O)N[C@H](CCC(N)=O)C(=O)N[C@@H](CCC(=O)O)C(=O)N[C@H](Cc2ccc(O)cc2)C(=O)N[C@H](Cc2c[nH]c3ccccc23)C(=O)NCCCC(=O)O1 [MBA4, alcameb] (V[dE]RGPL[dQ]E[dY][dW][GABA]; linker N-C via X1)
[5]
  antibacterial activity against Gram-positive bacteria: good Gram-positive antibiosis

## CN[C@H](CC(C)C)C(=O)N[C@H]1C(=O)N[C@@H](CC(N)=O)C(=O)N[C@H]2C(=O)N[C@H]3C(=O)N[C@H](C(=O)N[C@H](C(=O)O)c4cc(O)cc(O)c4-c4cc3ccc4O)[C@H](O)c3ccc(c(Cl)c3)Oc3cc2cc(c3O[C@@H]2O[C@H](CO)[C@@H](O)[C@H](O)[C@H]2O[C@H]2C[C@](C)(N)[C@H](O)[C@H](C)O2)Oc2ccc(cc2Cl)[C@H]1O [vancomycin]
S. aureus tn:hemB
  MIC difference between wild-type S. aureus and tn:hemB strain: no significant differences in MIC
[7]
  antibacterial activity: active

## lysobactin
S. aureus tn:hemB
  MIC difference between wild-type S. aureus and tn:hemB strain: no significant differences in MIC
[7]
  antibacterial activity: active

## lysocin E
Mycobacterium smegmatis
  activity against Mycobacterium smegmatis: active

## nisin
S. aureus tn:hemB
  MIC difference between wild-type S. aureus and tn:hemB strain: no significant differences in MIC
[1]; read-out: lipid II binding affinity Kd
  pKd: 7.15
[7]
  antibacterial activity: active

## ramoplanin
S. aureus tn:hemB
  MIC difference between wild-type S. aureus and tn:hemB strain: no significant differences in MIC
[7]
  antibacterial activity: active
